# Results from US20250369050A1, “METHODS AND COMPOSITIONS RELATED TO ASSESSMENT AND TREATMENT OF KIDNEY DISEASE” (Board of Regents, The University of Texas System, priority 2022, published 2025).
# Where two headings read alike, the source gives them in different places.
# Key:
# [1] = tested on: mouse insulin receptor mRNA; assay: Insulin receptor mRNA knockdown in MCT cells by qRTPCR (FIG. 34); format: cell-based; conditions: reverse transfection, 72 h
# Experimental: (§1) FIG. 34. siRNAs to insulin receptor (IR) based on sequence in mouse and rat reduces IR in mouse kidney cells. Mouse cortical tubular (MCT) cells were reverse transfected with siRNAs targeting mouse and rat insulin receptor mRNA (m/r IRsiRNA #1 and m/r IR siRNA #5) using RNAiMax (6 ul in optiMEM) and plated on 6 well plates. After 72 h of incubation, total RNA was isolated and subjected to cDNA synthesis followed by qRTPCR (n=6/group, ****p<0.0001).
# as §1, with “34 illustrates the administration of the siRNA for the insulin receptor to mice treated with adenine reduced insulin receptor in the kidney but not in liver and prevented the increase in blood urea nitrogen levels (FIG. 35). In FIG. 34,” for “34.”
# [2] = tested on: mice challenged with adenine; assay: In vivo IRsiRNA #1 with adenine challenge in drinking water in mice (FIG. 35); set-up: species or system mouse
# Experimental: (§2) FIG. 35. In vivo administration of IRsiRNA #1 reduced IR specifically in mouse kidney and prevented adenine-induced rise in BUN levels in mice. Mice were administered vehicle or kidney targeting IRsiRNA #1 prior to being challenged with adenine (5 mM) in the drinking water for 4 days.
# as §2, with “In FIG.” for “FIG.”, “35, in” for “35. In”, “Blood Urea Nitrogen (BUN)” for “BUN”
# [3] = tested on: human insulin receptor mRNA; assay: Insulin receptor mRNA knockdown in HK2 cells by qRTPCR (FIG. 36); format: cell-based; conditions: 96 h after transfection, vs control siRNA
# Experimental: FIG. 36. siRNA to Human and Pig Insulin receptor is effective to reduce mRNA for Insulin receptor in human kidney cells. Human kidney (HK2) proximal tubular cells were transfected with siRNA (4 ul from 10 um stock) using RNAiMax (6 ul in optiMEM) and plated on 6 well plates. After 48 h, the media was replaced with fresh media. After 96 h of the transfection, total RNA was isolated and subjected to cDNA synthesis followed by qRTPCR.
# In this non-limiting example, siRNA targeting human/pig insulin receptor mRNA can reduce human insulin receptor in human tubular cells. (FIG. 36). In FIG. 36, siRNA to human and pig insulin receptor is effective to reduce mRNA for insulin receptor in human kidney cells. Human kidney (HK2) proximal tubular cells were transfected with siRNA (4 ul from 10 um stock) using RNAiMax (6 ul in optiMEM) and plated on 6 well plates. After 48 h, the media was replaced with fresh media. After 96 h of the transfection, total RNA was isolated and subjected to cDNA synthesis followed by qRTPCR.
# kidney cells [4] = assay: Protection of kidney cells from cell death by MTAP inhibitor (FIG. 18); format: cell-based; conditions: cell stress due to reduction of MDM2
# db/db mice [5] = assay: MTAP inhibitor for 8 weeks in db/db mice (FIG. 32, 33); format: in vivo, mouse
# Experimental: FIG. 32. […] Control (db/m) and diabetic (db/db) mice were treated from week 12 to week 20 with MTAP inhibitor (10 mg/kg/day in drinking water) and 24 h urine samples were collected and measured for albumin/creatinine ratio (A), hydrogen peroxide/creatinine ratio (B) and collagen/creatinine ratio (C). (*p<0.05, ANOVA, n=5-6/group)
# FIG. 33. […] Control (db/m) and diabetic (db/db) mice were treated from week 12 to week 20 with MTAP inhibitor (10 mg/kg/day in drinking water) and kidney weight was standardized per tibia length (A). Kidney cortex was immunoblotted for fibronectin and laminin y1 and standardized for b-actin with quantitative data shown in (B) and (C), respectively. (*p<0.05, ANOVA, n=5-6/group)
# [6] = tested on: mice undergoing ischemia-reperfusion injury; assay: Ischemia-reperfusion injury in mice, BUN (FIG. 25); format: in vivo, mouse; conditions: inhibitor given once before ischemia 30 min and reperfusion, BUN 24 h later
# Experimental: FIG. 25. MTAP inhibitor DADMe-ImmA given once before ischemia-reperfusion injury prevents an increase in BUN levels in mice undergoing ischemia-reperfusion injury. Mice underwent ischemia for 30m followed by reperfusion and 24 h later, the BUN was measured.
# [7] = tested on: patients with hyperfiltration; assay: Urine adenine in type 1 diabetic patients with hyperfiltration treated with empagliflozin (FIG. 23); format: in vivo, human; conditions: high risk patients with hyperfiltration, after 8 weeks of treatment
# Text: FIG. 23. Empagliflozin reduces urine adenine levels in patients with hyperfiltration. Hyperfilterers (red lines and dots) and normofilterers (blue lines and dots). Overall effect of treatment (Visit 3 and 4 vs. Visit 12 and 13) on least square mean changes to log-transformed adenine levels is reported. Significant p-values stated. *p<0.05, **p<0.01.
# mice = assay: Adenine administration to mice (FIG. 30, 31); format: in vivo, mouse
# Text: FIG. 30. Adenine administration to mice increases serum sTNFR1 (A), plasma KIM-1 (B). (n=12 in control group and n=7 in adenine treated group, *p<0.05, **p<0.01, ***p<0.001, […] vs control by t-test or One-way ANOVA).
# FIG. 31. Adenine administration to mice increases kidney (A) and heart (B) hypertrophy and mTOR mediated matrix molecules in the kidney (C). Quantitative assessment of phosphor-S6 kinase as a measure of mTOR (D), fibronectin/-b-actin (E) and collagen type 1 alpha 2 chain (F). (n=12 in control group and n=7 in adenine treated group, *p<0.05, **p<0.01, ***p<0.001, […] vs control by t-test or One-way ANOVA).
# Patients with type 1 diabetes (n=8) or type 2 diabetes (n=8) have an increase in tissue levels of adenine in their kidney biopsies as compared to healthy controls (n=5)(FIG. 29). Adenine administration is causative of the major manifestations of diabetic kidney disease in a mouse model, including serum soluble tumor necrosis factor receptor-1 (sTNFR1) and plasma kidney injury […] (KIM1) (FIG. 30). Adenine also stimulates kidney hypertrophy and heart hypertrophy (FIG. 31) as well as kidney phosphor-S6-kinase (marker of mTOR activity), kidney fibronectin and kidney collagen type 1 alpha-2 chain (FIG. 31). An inhibitor of MTAP (DADMe-ImmA 10 mg/kg/d in drinking water for 8 weeks) reduces urine ACR, urine hydrogen peroxide (urine H2O2) and urine collagen in a mouse model of diabetic kidney disease (db/db mouse) (FIG. 32).
# [8] = tested on: human proximal tubular cells (HK2); assay: ATP generation by Seahorse analysis in HK2 cells exposed to adenine; format: cell-based
# kidney cells [9] = assay: Adenine toxicity to kidney cells (FIG. 13); format: cell-based
# kidney tubular cells = assay: Adenine stimulation of extracellular matrix molecules in kidney tubular cells; format: cell-based
# mTOR pathway = assay: Adenine-induced stimulation of mTOR pathway (P-S6K) in tubular cells (FIG. 28); format: cell-based; conditions: adenine challenge
# Text: The downstream pathways stimulated by adenine are PI3Kinase, AKT and mTOR (FIG. 28). […] Once mTOR is inhibited the downstream effect of adenine to stimulate matrix accumulation was reduced (FIG. 19).
# [10] = tested on: Kidney tubules (MCT) cells; assay: Adenine-induced fibronectin accumulation in MCT cells (FIG. 19); format: cell-based, mouse
# Experimental: FIG. 19. Effect of Rapamycin and NaHS on Adenine. […] A. Kidney tubules (MCT) cells were pre-incubated with 10 nM of rapamycin for 30 min followed by incubation with 20 μM of adenine for 15 min. B. MCT cells were incubated with 20 μM of adenine and 250 μM NaHS for 15 min.
# db/db mice [11] = tested on: db/db mice
# Experimental: FIG. 26. […] NaHS administered for 4 weeks to db/db mice and db/m mice and MTAP/-b-actin and fibronectin/b-actin levels were evaluated by immunoblotting. Urine ACR was measured at end of 4-week period of NaHS administration.
# [12] = 10 mg/kg/day in drinking water, week 12 to 20, 24 h urine
# [13] = 10 mg/kg/day, 8 weeks, kidney cortex immunoblot
# [14] = adenine administration vs control
compound,measurement,setting,value
"m/r IRsiRNA #1: siRNA targeting mouse/rat IR mRNA, SEQ ID NO. 1 (+) and SEQ ID NO. 2 (−) (sense GGCUCUGUCCGCAUCGAGAAGAAUA; antisense UAUUCUUCUCGAUGCGGACAGAGCCCC; listed as RNA, chemistry not fully specified)",mouse insulin receptor at mRNA level,[1],significant reduction
same,IR in mouse kidney cortex,"[2]; day 4, immunoblot vs control sample",reduction of IR in mouse kidney cortex
same,BUN levels,[2]; siRNA before adenine 5 mM in drinking water for 4 days,no increase in BUN levels
"H/P siRNA #2: siRNA targeting human and pig IR mRNA, SEQ ID NO. 17 (+) and SEQ ID NO. 18 (−) (sense CAGUACGUCAUUCACAACAACAAGU; antisense ACUUGUUGUUGUGAAUGACGUACUGGU; listed as RNA, chemistry not fully specified)",human insulin receptor mRNA,[3],significant reduction
"CSC[C@H]1CN(Cc2c[nH]c3c(N)ncnc23)C[C@@H]1O [MT-DADMe-ImmA, Methylthio-DADMe-Immucillin]",protection of kidney cells from cell death,kidney cells [4],protects kidney cells from cell death
same,urine ACR,db/db mice [5]; [12],reduces
same,urine H2O2,db/db mice [5]; [12],reduces
same,urine collagen,db/db mice [5]; [12],reduces
same,kidney fibronectin,db/db mice [5]; [13],reduced
same,kidney laminin yI,db/db mice [5]; [13],reduced
same,kidney hypertrophy,"db/db mice [5]; 10 mg/kg/day, 8 weeks, kidney weight per tibia length",reduced
same,BUN,[6],no significant increase in BUN
"m/r IR siRNA #5: siRNA targeting mouse/rat IR mRNA, SEQ ID NO. 9 (+) and SEQ ID NO. 10 (−) (sense AAAUCAGUUCCUCAAAUUGACCAAU; antisense AUUGGUCAAUUUGAGGAACUGAUUUUG; listed as RNA, chemistry not fully specified)",mouse insulin receptor at mRNA level,[1],significant reduction
OC[C@H]1O[C@@H](c2ccc(Cl)c(Cc3ccc(O[C@H]4CCOC4)cc3)c2)[C@H](O)[C@@H](O)[C@@H]1O [Empagliflozin],urine adenine/creatinine levels,[7],reduces urine adenine/creatinine levels
Nc1ncnc2nc[nH]c12 [Adenine],heart hypertrophy,mice; adenine administration,stimulates
same,kidney collagen type 1 alpha-2 chain,mice; adenine administration,stimulates
same,kidney fibronectin,mice; adenine administration,stimulates
same,kidney hypertrophy,mice; adenine administration,stimulates
same,kidney phosphor-S6-kinase (marker of mTOR activity),mice; adenine administration,stimulates
same,plasma KIM-1,mice; [14],increases
same,serum sTNFR1,mice; [14],increases
same,ATP generation,[8]; dose dependence,dose-dependently reduced ATP generation
same,ATP generation,[8]; high doses of adenine,complete reduction of ATP generation
same,toxicity to kidney cells,kidney cells [9],toxic to kidney cells
same,Type I collagen,kidney tubular cells,rapidly stimulates Type I collagen
same,fibronectin production,kidney tubular cells,stimulates
same,S6K phosphorylation (P-S6K),mTOR pathway,increased within minutes of adenine challenge
same,elevation in BUN levels vs non-adenine group,[2]; vehicle and adenine 5 mM in drinking water for 4 days,3 fold
"[Na+].[SH-] [NaHS, sodium hydrogen sulfide]",adenine-induced fibronectin production,"[10]; MCT cells, 20 μM adenine and 250 μM NaHS for 15 min",inhibit adenine-induced fibronectin production
same,adenine-induced disease causing pathways (mTOR),"[10]; kidney cells, NaHS",protects against
same,healing pathways (AMPK),"[10]; kidney cells, NaHS",improving healing pathways (AMPK)
same,MTAP/b-actin by immunoblotting,"db/db mice [11]; NaHS 4 weeks, kidney",significant reduction
same,fibronectin/b-actin by immunoblotting,"db/db mice [11]; NaHS 4 weeks, kidney",significant reduction
same,urine ACR,db/db mice [11]; end of 4-week NaHS administration,significant reduction
"H/P IR siRNA #4: siRNA targeting human and pig IR mRNA, SEQ ID NO. 21 (+) and SEQ ID NO. 22 (−) (sense GGAAUGACCAGAGACAUCUAUGAAA; antisense UUUCAUAGAUGUCUCUGGUCAUUCCAA; listed as RNA, chemistry not fully specified)",human insulin receptor mRNA,[3],significant reduction
